Experimental data: the NIST ThermoML archive (doi:10.1021/je0501944)

How the values were obtained:
[1] = 298.15 K, 101.33 kPa, Liquid; for viscosity: Capillary tube (Ostwald / Ubbelohde) method
[2] = xn = mol fraction of the nth substance listed; conditions: 298.15 K, 101 kPa, Liquid; for viscosity: Capillary tube (Ostwald / Ubbelohde) method

CCCCC [pentane]
[1]
Conditions	mass density [kg/m3]	viscosity [mPa·s]
–	621.32	0.219

CCCCC [pentane] + C1CCCCC1
[2]
Conditions	mass density [kg/m3]	viscosity [mPa·s]
x2 = 0.0437	627.56	0.2065
x2 = 0.2145	653.09	0.2555
x2 = 0.2955	665.44	0.2828
x2 = 0.3753	677.59	0.3128
x2 = 0.4595	690.43	0.3503
x2 = 0.6125	713.75	0.4425
x2 = 0.7048	727.81	0.5146
x2 = 0.7791	739.14	0.5847
x2 = 0.8514	750.15	0.6591
x2 = 0.9254	761.85	0.7641

CCCCC [pentane] + Cc1ccccc1
[2]
Conditions	mass density [kg/m3]	viscosity [mPa·s]
x2 = 0.0415	630.69	0.2029
x2 = 0.2011	668.27	0.2231
x2 = 0.2799	687.21	0.2386
x2 = 0.3647	707.61	0.2592
x2 = 0.4341	724.3	0.2786
x2 = 0.6011	764.45	0.3367
x2 = 0.6821	783.95	0.3688
x2 = 0.7502	800.32	0.3999
x2 = 0.8213	817.43	0.4371
x2 = 0.9137	840.19	0.4891

C1CCCCC1 [cyclohexane]
[1]
Conditions	mass density [kg/m3]	viscosity [mPa·s]
–	773.93	0.894

C1CCCCC1 [cyclohexane] + Cc1ccccc1
[2]
Conditions	mass density [kg/m3]	viscosity [mPa·s]
x2 = 0.0407	776.48	0.8158
x2 = 0.2018	788.44	0.7133
x2 = 0.2798	794.63	0.6687
x2 = 0.3613	801.33	0.6305
x2 = 0.4416	808.17	0.6081
x2 = 0.6003	822.4	0.566
x2 = 0.6784	829.75	0.5534
x2 = 0.7615	837.82	0.5429
x2 = 0.8396	845.63	0.5395
x2 = 0.9202	853.94	0.5393

Cc1ccccc1 [toluene]
[1]
Conditions	mass density [kg/m3]	viscosity [mPa·s]
–	862.19	0.552
